Test results reported in patent US20220047569A1, “METHOD AND COMPOUND FOR USE, IN TREATING AND/OR PREVENTING NETOSIS” (Jubilant EpiPad LLC, priority 2020, published 2022).

How the values were obtained:
DSS-induced colitis = assay: Dextran sulfate sodium (DSS) induced colitis model; assay type: in vivo, C57BL/6 male mice; conditions: PO BID
Description: Ulcerative colitis (UC) is an intermittent inflammatory bowel disease of the colonic mucosa, with periods of exacerbated symptoms (the active phase of the disease), and periods that are relatively symptom-free (remission phase of disease). Among various chemical induced colitis models, DSS-induced colitis model is widely used because of its simplicity and many similarities with human ulcerative colitis. C57BL/6 male mice at 6-8 weeks of age were purchased from vivo biotech India (under the license from Taconic). The procedures involving the care and use of animals in the study was reviewed and approved by the Institutional Animal Care and Use Committee (IAEC/JDC/2018-161R) prior to conduct. During the study, the care and use of animals was in accordance with the principles outlined in the Guide for the Care and Use of Laboratory Animals, 8th Edition, 2010 (National Research Council) and every effort was made to minimize suffering. The animals were acclimatized for ˜10 days prior to experimental use. Mice were caged with free access to food and fresh water in a temperature-controlled room (22° C.-24° C.) on a 12 h light/dark cycle. On the day of DSS administration (day 0), labelled (using ear punch or any other convenient method) groups of control and experimental mice should be weighed and, if required, average group weight equilibrated so as to eliminate any significant weight difference between groups. Normal control animals were provided with regular drinking water and disease control animals were provided with 2.25% DSS in drinking water for 5 days (Day 1 to Day 5) and next 5 days, both the groups received regular drinking water (Day 6 to Day 10). DSS was replaced with fresh DSS formulation once in 2.5 days. Animals were dosed with Vehicle (0.5% Methyl cellulose in PBS+0.025% Tween-80), Compound 143, PO, bid and Fingolimod, PO, qd. Administration of 2.25% DSS in drinking water induced significant ulcerative colitis leading to ˜5-fold disease induction in mice of disease control group compared to normal control. […]

4T1 cells = assay: Murine breast cancer efficacy model, 4T1 allograft; assay type: in vivo, Balb/C female mice; conditions: for TGI (percent tumor growth inhibition): BID, PO, day 14, 4T1
Procedure: PAD4 is highly expressed in malignant tumours of various cell types, Here, the mouse mammary carcinoma of 4T1 and EMT6 cells were used as an experimental model. Mouse 4T1, and EMT-6, a breast cancer cell line was sourced from American Type Culture Collection (ATCC), USA. Cells were grown according to the product information. To establish allografts, the cells were harvested by trypsinization when they reached around 70 to 80% confluence. After harvesting, Balb/C female mice (7-8 weeks) were implanted with 4T1 (1 million cells/site) and EMT-6 (0.5 million cells/site) subcutaneously in the dorsal right flank of mice using a 1 mL BD syringe attached to a 24-gauge needle. When the tumors became palpable tumor measurement was initiated and at an approximate tumor volume of ˜110 and 93 mm3, respectively. Animals were randomized into different treatment groups keeping tumor volume and the number of animals/group similar across the groups and compound 143 treatment was initiated. The procedures involving the care and use of animals in the study was reviewed and approved by the Institutional Animal Care and Use Committee (IAEC/JDC/2021/246R) prior to conduct. During the study, the care and use of animals was in accordance with the principles outlined in the Guide for the Care and Use of Laboratory Animals, 8th Edition, 2010 (National Research Council) and every effort was made to minimize suffering. The animals were acclimatized for 7 days prior to experimental use. Mice were caged with free access to food and fresh water in a temperature-controlled room (22° C.-24° C.) on a 12 h light/dark cycle.
Tumor dimensions (length and breadth) were measured on days 1 (animal randomization based on tumor volume) and thrice weekly thereafter until study termination.
Tumor volumes were calculated using the formula (b2*1)*0.52 where l=length, b=breadth (Dusan Djokovic et al., BMC Cancer, 2010, 10:641).
The percent tumor growth inhibition (% TGI) as a function of anti-tumor efficacy were computed with respect to untreated vehicle control by comparing to the tumor volumes of day 1. […]

N[C@@H]1CCCN(C(=O)c2cc3c4c(c2)nc(-c2cc5cccc(Cl)c5n2CC2CC2)n4CCO3)C1 [Compound 143, (R)-(3-aminopiperidin-1-yl)(2-(7-chloro-1-(cyclopropylmethyl)-1H-indol-2-yl)-3,4-dihydro-5-oxa-1,2a-diazaacenaphthylen-7-yl)methanone]
Disease reversal compared to disease control (DSS-induced colitis; 12.5 mg/kg): 8.7%
Disease reversal compared to disease control (DSS-induced colitis; 25 mg/kg): 26.6%
Disease reversal compared to disease control (DSS-induced colitis; 50 mg/kg): 45.5%
TGI (percent tumor growth inhibition) (4T1 cells; 25 mg/kg): 24.3%
TGI (percent tumor growth inhibition) (4T1 cells; 50 mg/kg): 48.8%
Body weight changes (4T1 cells; 4T1 bearing mice, BID PO for 14 days): no significant body weight changes
